The text below walks through data of patent EP4755881A1 (Wuhan Createrna Science and Technology Co., Ltd., priority 2023, dated 2025).

Series [1] deals with hLPAR1 (human lysophosphatidic acid receptor 1, Accession No.: NM_001401.4) (Homo sapiens, UniProt Q92633). Nature of the series: cell-based. The settings on record: FLIPR method, CHO-K1 cells overexpressing hLPAR1. The procedure, abridged: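 Antagonist mode in CHO-K1 cells stably expressing hLPAR1, Fluo-4 loaded; compound preincubated 30 min at room temperature before 1 µM oleoyl-LPA (final) challenge.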
Sequence of hLPAR1 (human lysophosphatidic acid receptor 1, Accession No.: NM_001401.4) (Q92633 whole entry): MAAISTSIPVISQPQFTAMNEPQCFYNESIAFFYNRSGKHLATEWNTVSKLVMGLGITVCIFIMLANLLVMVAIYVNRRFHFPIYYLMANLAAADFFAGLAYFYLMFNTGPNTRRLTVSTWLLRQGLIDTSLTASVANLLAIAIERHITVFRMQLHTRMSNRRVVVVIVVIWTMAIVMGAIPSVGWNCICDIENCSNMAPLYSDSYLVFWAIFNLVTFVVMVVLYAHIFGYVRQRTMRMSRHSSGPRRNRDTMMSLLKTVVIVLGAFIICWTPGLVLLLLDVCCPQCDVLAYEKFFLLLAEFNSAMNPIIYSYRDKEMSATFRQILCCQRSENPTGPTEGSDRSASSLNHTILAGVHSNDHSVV

For the next series, the target named is T1, LPAR1 receptor (Homo sapiens, UniProt Q92633).
T1 construct: expressed in transfected cells
T1 sequence (Q92633 whole entry): as above
Nature of the series: LPAR1 in vitro biological activity evaluation 2: HTRF cAMP kit (LANCE Ultra cAMP Kit) assay in CHO stable transfected cell line expressing the LPAR1 receptor. The class given is cell-based. The following applies: Table 2, read-out: LPAR1 inhibitory activity IC50. On the procedure:
The inhibitory effects of the compounds of the present disclosure on the LPAR1 receptor were determined using a Chinese hamster ovary (CHO) stable transfected cell line expressing the LPAR1 receptor, through the HTRF cAMP kit (LANCE® Ultra cAMP Kit).
The CHO cell line expressing the LPAR1 receptor was cultured in F-12 medium (Gibco, 117650054) containing 10% fetal bovine serum (FBS, Avantor, 76294-180) and 0.2 mg/mL hygromycin B (Solarbio, H8080-1g) at 37°C with 5% CO2. Cell passage, recovery, and cryopreservation were performed according to conventional methods. The stable transfected cell line was cultured to 80% confluence, digested with trypsin to collect cells, counted, and then seeded at 5 µL/well in a 384-well plate (500 cells/5 µL). The 1× Stimulation Buffer was prepared according to the instructions of the kit (LANCE® Ultra cAMP Kit). 1 µL of the test compound solution (diluted to 10× with 1× Stimulation Buffer) was added to the corresponding experimental wells, followed by centrifugation and incubation at 37°C for 10 minutes. […] 5 µL/well of Eu-cAMP (diluted with Detection buffer) was added to the corresponding experimental wells. 5 µL/well of ULight™-anti-cAMP antibody (diluted with Detection buffer) was added to the corresponding experimental wells, followed by centrifugation and incubation at room temperature for 1 hour. After the incubation was completed, the readings at 665 nm and 620 nm under 330 nm excitation were detected using the HTS high-throughput drug screening multifunctional microplate reader (BMG, PHERAstar FSX). The IC50 values were calculated by fitting nonlinear regression (dose response - variable slope) using GraphPad Prism software.
(Time-resolved FRET reads energy transfer from a long-lived donor to a nearby acceptor.)

Series [2] can be described thus: Pharmacokinetic study in rats (oral gavage and tail vein injection, plasma LC-MS/MS). The series is classed as in vivo. The following applies: rat; for Cmax: read-out: Cmax. The method in brief: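 Male SD rats (200–250 g) are dosed orally (fasted; 5% DMSO/5% ethanol/60% PEG400/30% saline) or by tail-vein injection (10% ethanol/20% water/70% PEG400). Plasma sampled up to 24 h is analysed by LC-MS/MS. Non-compartmental analysis yields Cmax, C0, Tmax, AUC and T1/2.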

The mark [3] stands for this setting: Table 1, read-out: LPAR1 inhibitory activity IC50.
Where [4] appears, read: LPAR1 inhibitory activity IC50, Table 1.

Like-named read-outs stand apart in the source and are kept apart here.

Take `CCC[C@@H](C)OC(=O)Nc1c(-c2ccc(C#C[C@@H]3C[C@H]3C(=O)O)c(C)n2)nnn1C` (mixture of isomers) [224-B, trans-2-((2-methyl-6-(1-methyl-5-(((((R)-pentan-2-yl)oxy)carbonyl)amino)-1H-1,2,3-triazol-4-yl)pyridin-3-yl)ethynyl)cyclopropane-1-carboxylic acid]: the IC50 is 0.07 µM in series [1] (setting [3]) and 0.127 µM on LPAR1 receptor.
For the compound `CCCC(C)OC(=O)Nc1c(-c2ccc(C#CC3CCCC3C(=O)O)c(C)n2)nnn1C` (single isomer, unassigned) [305-B], the IC50 on LPAR1 receptor came out at 0.0815 µM. In series [2] (SD rats, Iv, 1 mg/kg), the AUC(0-t) lay within 3000 to 5000 ng·h/mL, the half-life was 3.52 h and the Cmax was in the range of 800 to 5000 ng/mL. Besides, in series [2] (SD rats, Po, 1 mg/kg), the AUC(0-t) is 5000 to 10000 ng·h/mL, the half-life was 3.49 h and the Cmax fell in the range of 800 to 5000 ng/mL.
Regarding `CCCN(C)C(=O)OCc1c(-c2ccc(O[C@H]3CCC[C@H](C(=O)O)C3)c(C)n2)nnn1C` [Control compound 1, reference compound], the IC50 on LPAR1 receptor is 0.407 µM. Further, the half-life in series [2] (male, SD, iv, 1 mg/kg) was 3.26 h; in series [2] (male, SD, po, 1 mg/kg) it was 2.37 h; in series [2] (male, SD, po, 3 mg/kg), 2.59 h. The AUC(0-t) amounted to 811 ng·h/mL in series [2] (male, SD rats, Iv, 1 mg/kg); 626 ng·h/mL in series [2] (male, SD rats, Po, 1 mg/kg); 1540 ng·h/mL in series [2] (male, SD rats, Po, 3 mg/kg). Besides, the Cmax in series [2] (male, SD rats, Iv, 1 mg/kg) stood at 1570 ng/mL; in series [2] (male, SD rats, Po, 1 mg/kg), 154 ng/mL; in series [2] (male, SD rats, Po, 3 mg/kg), 985 ng/mL.
For `CCc1nc(-c2nnn(C)c2NC(=O)O[C@H](C)CC(C)(F)F)ccc1C#CC1(CC(=O)O)CC1` [compound 232], on LPAR1 receptor, the IC50 turned out to be 0.0754 µM. Besides, in series [2] (SD rats, Iv, 1 mg/kg), the area under the curve AUC(0-t) was in the range of 5000 to 10000 ng·h/mL, the half-life was 14.5 h and the Cmax lay in the range of 800 to 5000 ng/mL. In addition, in series [2] (SD rats, Po, 1 mg/kg), the exposure AUC(0-t) lay in the range of 3000 to 5000 ng·h/mL, the half-life was 14 h and the Cmax is 200 to 800 ng/mL.
Take `Cc1nc(-c2onc(C)c2NC(=O)O[C@H](C)CC(C)(F)F)ccc1C#CC1(CC(=O)O)CC1` [compound 276]: the IC50 at LPAR1 receptor is 0.0964 µM. Also, in series [2] (SD rats, Iv, 1 mg/kg), the AUC(0-t) lay in the range of 3000 to 5000 ng·h/mL, the half-life was 3.69 h and the Cmax fell in the range of 800 to 5000 ng/mL.
Regarding `CCC[C@@H](C)OC(=O)Nc1c(-c2ccc(C#CC3(CC(=O)O)CC(OC)C3)c(C)n2)nnn1C` (stereo partly drawn) [compound 278], the IC50 in series [1] (setting [3]) stood at 0.0381 µM; on LPAR1 receptor, 0.0344 µM. Further, the half-life in series [2] (male, SD, iv, 1 mg/kg) is 5.24 h; in series [2] (male, SD, po, 1 mg/kg), 4.5 h. Moreover, the AUC(0-t) in series [2] (male, SD rats, Iv, 1 mg/kg) was 5000 to 10000 ng·h/mL; in series [2] (male, SD rats, Po, 1 mg/kg) it was 5000 to 10000 ng·h/mL. The Cmax was in the range of 5000 to 8000 ng/mL in series [2] (male, SD rats, Iv, 1 mg/kg) and 200 to 800 ng/mL in series [2] (male, SD rats, Po, 1 mg/kg).
As for `Cc1nc(-c2nnn(C)c2NC(=O)O[C@H](C)CC(C)C)ccc1C#C[C@@H]1CC[C@H]1C(=O)O` [compound 308], the IC50 in series [1] (setting [4]) was found to be 0.0109 µM; at LPAR1 receptor it was 0.0932 µM.
As to `Cc1nc(-c2nnn(C)c2NC(=O)O[C@H](C)c2ccccc2)ccc1C#C[C@@H]1CC[C@H]1C(=O)O` [compound 309], the IC50 at LPAR1 receptor is 0.0832 µM. Besides, the half-life is 4.36 h in series [2] (male, SD, iv, 1 mg/kg) and 4.08 h in series [2] (male, SD, po, 1 mg/kg). Further, the exposure AUC(0-t) in series [2] (male, SD rats, Iv, 1 mg/kg) is 3000 to 5000 ng·h/mL; in series [2] (male, SD rats, Po, 1 mg/kg), 5000 to 10000 ng·h/mL. The Cmax was 800 to 5000 ng/mL in series [2] (male, SD rats, Iv, 1 mg/kg) and 800 to 5000 ng/mL in series [2] (male, SD rats, Po, 1 mg/kg).
Consider `CCCC[C@@H](C)OC(=O)Nc1c(-c2ccc(C#CC3(CC(=O)O)CC3)c(C)n2)nnn1C` [compound 313], for which the IC50 in series [1] (setting [4]) amounted to 0.0161 µM. Further, the IC50 on LPAR1 receptor is 0.156 µM. Further, in series [2] (SD rats, Iv, 1 mg/kg), the AUC(0-t) lay in the range of 3000 to 5000 ng·h/mL, the half-life was 5.12 h and the Cmax is 800 to 5000 ng/mL. In addition, in series [2] (SD rats, Po, 3 mg/kg), the AUC(0-t) was 10000 to 20000 ng·h/mL, the half-life was 5.59 h and the Cmax is 800 to 5000 ng/mL.
Take `CCOC1CC(C#Cc2ccc(-c3nnn(C)c3NC(=O)O[C@H](C)C(F)(F)CC)nc2C)(CC(=O)O)C1` (stereo partly drawn) [compound 429]: the IC50 on LPAR1 receptor was 0.0334 µM. Moreover, the half-life is 6.87 h in series [2] (male, SD, iv, 1 mg/kg) and 5.7 h in series [2] (male, SD, po, 1 mg/kg). Besides, the AUC(0-t) in series [2] (male, SD rats, Iv, 1 mg/kg) lay within 3000 to 5000 ng·h/mL; in series [2] (male, SD rats, Po, 1 mg/kg) it was 3000 to 5000 ng·h/mL. Besides, the Cmax in series [2] (male, SD rats, Iv, 1 mg/kg) was 5000 to 8000 ng/mL; in series [2] (male, SD rats, Po, 1 mg/kg), 200 to 800 ng/mL.
As to `CCC(F)(F)[C@@H](C)OC(=O)Nc1c(-c2ccc(C#CC3(CC(=O)O)CC3)c(C)n2)noc1C` [compound 444], the IC50 on LPAR1 receptor was found to be 0.0484 µM. In addition, in series [2] (SD rats, Iv, 1 mg/kg), the AUC(0-t) was 1200 to 3000 ng·h/mL, the half-life is 2.91 h and the Cmax is 800 to 5000 ng/mL. In addition, in series [2] (SD rats, Po, 1 mg/kg), the AUC(0-t) was in the range of 3000 to 5000 ng·h/mL, the half-life is 3.61 h and the peak concentration (Cmax) fell in the range of 200 to 800 ng/mL.

A word on the IC50: it is the concentration that gives 50% inhibition. For orientation: AUC(0-t) means the area under the concentration-time curve up to a stated or last time point. A word on the half-life: it is the time in which the quantity being followed falls by half. Lower therefore signals rapid decline. In general, Cmax refers to the peak of the concentration-time curve.
